Key:
[1] = Stability of the cosmetic composition during accelerated storage at room temperature (HPLC content of the combination's components); assay type: physicochemical; settings: for Prostaglandin F2 content, % (as % to the initial one): +25-27° C., measurement error 5%; for Stability / content in the cosmetic composition during accelerated storage (in words): room temperature, 20 degrees above the recommended +4 to +8° C.
Method: The cosmetic composition for stimulation of hair growth (example of composition 1 according to the invention, see above) was held at +25-27° C. for 2 months. Samples were taken every week and analyzed for the content of the components of the combination by HPLC. To prepare a sample for analysis, 1 g of gel was taken from the cosmetic composition into a round-bottom glass centrifuge tube and 2 g of distilled ethyl acetate were added. The mixture was shaken on a Multi-Vortex V32 until the liquids were completely mixed for 3 min. The resulting suspension was centrifuged for 5 min at 6000 rpm for complete separation of the layers. The upper layer (ethyl acetate layer) was carefully removed with a glass pipette and transferred to a conical-bottom flask (V25 mL). Another 2 g of distilled ethyl acetate were added to the solution remaining in the test tube, and the extraction procedure was repeated once again. The upper layer (ethyl acetate layer) was carefully removed with a glass pipette and added to the previously collected solution. The organic layer was evaporated on a rotary evaporator and dried in an oil pump vacuum. The residue was dissolved in ethanol to obtain a solution with an ethanol concentration of 26 mg/100 μL. The extract was analyzed by microcolumn reversed-phase HPLC in an acetonitrile-water gradient system (linear gradient, 5→100% acetonitrile). The components of the combination of the invention were identified by comparison with reference standards. The quantity of each component was estimated by the signal area in the chromatogram.

scalp hair growth = settings: 0.1% latanoprost applied to the scalp, after 24 weeks; cited from earlier work

CCCCC[C@H](O)/C=C/[C@@H]1[C@@H](C/C=C\CCCC(=O)N[C@H](CO)C(=O)OC(C)C)[C@@H](O)C[C@H]1O [modified prostaglandin F2]
Prostaglandin F2 content, % (as % to the initial one) ([1]; hold time 0 weeks, cosmetic composition for stimulation of hair growth): 100%
Prostaglandin F2 content, % (as % to the initial one) ([1]; hold time 1 week): 100%
Prostaglandin F2 content, % (as % to the initial one) ([1]; hold time 2 weeks): 100%
Prostaglandin F2 content, % (as % to the initial one) ([1]; hold time 3 weeks): 99%
Prostaglandin F2 content, % (as % to the initial one) ([1]; hold time 4 weeks): 99%
Prostaglandin F2 content, % (as % to the initial one) ([1]; hold time 5 weeks): 98%
Prostaglandin F2 content, % (as % to the initial one) ([1]; hold time 6 weeks): 98%
Stability / content in the cosmetic composition during accelerated storage (in words) [1]: decreases very slowly

CC(C)OC(=O)CCC/C=C\C[C@@H]1[C@@H](CC[C@@H](O)CCc2ccccc2)[C@H](O)C[C@@H]1O [latanoprost]
Hair density (terminal and vellus hair) (scalp hair growth): significant increase in hair density

CCCCC[C@H](O)/C=C/[C@H]1[C@H](O)CC(=O)[C@@H]1CCCCCCC(=O)OC(CO[N+](=O)[O-])CO[N+](=O)[O-] [E1, (Z)-1,3-bis(nitroxy)propan-2-yl-7-((1R,2R,3R)-3-hydroxy-2-((S,E)-3-hydroxyoct-1-en-1-yl)-5-xocyclopentyl)heptanoate]
Stability / content in the cosmetic composition during accelerated storage (in words) [1]: decreases over time

CCCCC[C@H](O)/C=C/[C@H]1[C@H](O)CC(=O)[C@@H]1C/C=C\CCCC(=O)OC(CO[N+](=O)[O-])CO[N+](=O)[O-] [(Z)-1,3-bis(nitroxy)propanyl-2-7-((1R,2R,3R)-3-hydroxy-2-((S,E)-3-hydroxyoctene-1-yl-1)-5-oxocyclopentenyl)-5-heptenoate]
Stability / content in the cosmetic composition during accelerated storage (in words) [1]: decreases over time

Reference: patent US12661364B2, “Remedy for hair growth enhancing” (GURUS BIOPHARM INC., priority 2019, dated 2026)
